# Measurements from PubChem BioAssay AID652194 (Johns Hopkins Ion Channel Center, 2013).
# Active and inactive are the calls of the source.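 How the source made its calls: active means hERG flux cut by over 30% at some tested dose, with a fitted dose response curve; inactive means no hERG inhibition at any dose or no curve.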
# Target: Voltage-gated inwardly rectifying potassium channel KCNH2 (Homo sapiens) (UniProt Q12809)
# Assay: off-target hERG block by TASK1 inhibitor candidates – FluxOR thallium flux, concentration-response, CHO cells, selectivity assay for TASK1 inhibitor project, SAR follow-up (AID 652194)
# Conditions: hERG-expressing cells, FluxOR thallium flux fluorescence
# Sequence of Voltage-gated inwardly rectifying potassium channel KCNH2 (Homo sapiens) (Q12809 whole entry, looked up): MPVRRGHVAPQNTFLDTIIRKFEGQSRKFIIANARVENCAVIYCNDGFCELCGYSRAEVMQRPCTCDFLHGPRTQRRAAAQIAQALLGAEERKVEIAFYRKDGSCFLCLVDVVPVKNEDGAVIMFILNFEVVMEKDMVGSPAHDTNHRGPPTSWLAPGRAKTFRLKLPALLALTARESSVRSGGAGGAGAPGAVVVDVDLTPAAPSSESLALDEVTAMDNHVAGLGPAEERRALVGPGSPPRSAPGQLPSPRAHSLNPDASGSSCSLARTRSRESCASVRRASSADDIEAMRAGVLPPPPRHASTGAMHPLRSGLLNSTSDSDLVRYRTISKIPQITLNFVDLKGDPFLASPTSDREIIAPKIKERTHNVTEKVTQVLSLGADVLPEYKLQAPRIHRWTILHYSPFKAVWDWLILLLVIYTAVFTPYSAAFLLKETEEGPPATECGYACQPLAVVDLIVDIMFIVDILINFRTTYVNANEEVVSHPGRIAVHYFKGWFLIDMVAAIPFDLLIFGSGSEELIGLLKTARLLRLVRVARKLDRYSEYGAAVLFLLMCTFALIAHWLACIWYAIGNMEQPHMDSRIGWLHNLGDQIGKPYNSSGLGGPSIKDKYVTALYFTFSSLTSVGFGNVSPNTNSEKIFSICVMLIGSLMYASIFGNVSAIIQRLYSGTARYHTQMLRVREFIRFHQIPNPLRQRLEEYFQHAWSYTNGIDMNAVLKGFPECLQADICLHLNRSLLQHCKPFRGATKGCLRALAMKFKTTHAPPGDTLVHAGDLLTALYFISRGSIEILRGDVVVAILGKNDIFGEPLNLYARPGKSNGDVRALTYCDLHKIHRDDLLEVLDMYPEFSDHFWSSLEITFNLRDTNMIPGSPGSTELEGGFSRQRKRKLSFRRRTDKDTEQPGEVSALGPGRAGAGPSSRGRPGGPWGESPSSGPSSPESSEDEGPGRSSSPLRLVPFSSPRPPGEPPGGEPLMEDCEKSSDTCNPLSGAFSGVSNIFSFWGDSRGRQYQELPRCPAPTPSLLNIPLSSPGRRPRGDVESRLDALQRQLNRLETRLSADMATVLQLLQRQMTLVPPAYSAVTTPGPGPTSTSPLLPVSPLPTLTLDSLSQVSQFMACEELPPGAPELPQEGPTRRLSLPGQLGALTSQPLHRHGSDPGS
row,Compound,IC50 [µM]
1,Cc1cccc(C(=O)Nc2cccc(NC(=O)c3cccc(C)c3)c2)c1,12.4

# Same assay, conditions: hERG-expressing cells, FluxOR thallium flux fluorescence; at 30 µM (top of the series)
row,Compound,"flux ratio, lower = inhibition"
1,Cc1cccc(C(=O)Nc2cccc(NC(=O)c3ccccc3C)c2)c1,inactive
2,Cc1cccc(C(=O)Nc2ccccc2NC(=O)c2ccccc2)c1,inactive
3,COc1c(F)cccc1C(=O)Nc1cccc(NC(=O)c2cccc(C)c2)c1,inactive
4,CCOc1ccccc1NC(=O)c1cccc(NC(=O)c2ccc(OC)cc2)c1,inactive
5,O=C(Nc1cccc(NC(=O)c2ccncc2)c1)c1ccccc1,inactive
6,Cc1cccc(NC(=O)c2ccccc2NC(=O)c2ccccc2)c1,inactive
7,Cc1cccc(C(=O)Nc2cccc(NC(=O)c3ccccc3C(F)(F)F)c2)c1,inactive
8,COc1ccccc1C(=O)Nc1cccc(NC(=O)c2ccccc2)c1,inactive
9,Cc1cccc(C(=O)Nc2ccccc2C(=O)Nc2ccccc2)c1,inactive
10,CC(C)Oc1ccccc1C(=O)Nc1cccc(NC(=O)c2ccccc2OC(F)(F)F)c1,inactive
11,O=C(Nc1cccc(NC(=O)c2ccccc2)c1)c1ccccc1,inactive
12,COc1ccccc1NC(=O)c1cccc(NC(=O)C2CCCCC2)c1,inactive
13,Cc1cccc(C(=O)Nc2cccc(NC(=O)c3ccc(C(F)(F)F)cc3)c2)c1,inactive
14,COc1ccccc1C(=O)Nc1cccc(NC(=O)c2ccccc2C(C)C)c1,inactive
15,CCOc1ccccc1NC(=O)c1cccc(NC(=O)c2ccccc2C(F)(F)F)c1,inactive
16,CCOc1ccccc1NC(=O)c1cccc(NC(=O)c2ccc(C(F)(F)F)cc2)c1,inactive
17,COc1ccccc1C(=O)Nc1cccc(NC(=O)c2cccc(C)c2)c1,inactive
18,CCOc1ccccc1NC(=O)c1cccc(NC(=O)C2CC2)c1,inactive
19,Cc1cccc(S(=O)(=O)Nc2cccc(NC(=O)c3ccccc3)c2)c1,inactive
20,O=C(Nc1ccccc1Cl)c1cccc(NC(=O)C2CCCC2)c1,inactive
21,O=C(Nc1cccc(NC(=O)c2ccccc2Cl)c1)c1ccccc1,inactive
22,CCOc1ccccc1NC(=O)c1cccc(NC(=O)c2cccc(C(F)(F)F)c2)c1,inactive
23,CCOc1ccccc1C(=O)Nc1cccc(NC(=O)c2ccccc2OC)c1,inactive
24,COc1ccccc1C(=O)Nc1cccc(NC(=O)c2ccccc2C)c1,inactive

row,Compound,"flux ratio, lower = inhibition"
1,O=C(Nc1cccc(NC(=O)c2cccc(C(F)(F)F)c2)c1)c1ccccc1,inactive
2,CCOc1ccccc1C(=O)Nc1cccc(NC(=O)c2cccc(C)c2)c1,inactive
3,COc1ccccc1C(=O)Nc1cccc(NC(=O)c2ccccc2OC(F)(F)F)c1,inactive
4,COc1ccccc1NC(=O)c1cccc(NC(=O)c2ccccc2)c1,inactive
5,COc1ccccc1C(=O)Nc1cccc(NC(=O)c2cccc3ccccc23)c1,inactive
6,Cc1cccc(C(=O)Nc2cccc(NC(=O)c3cccs3)c2)c1,inactive
7,COc1cccc(C(=O)Nc2cccc(NC(=O)c3cccc(C)c3)c2)c1,inactive
8,CC(C)(C)c1ccc(C(=O)Nc2cccc(NC(=O)c3ccccc3)c2)cc1,inactive
9,Cc1cccc(C(=O)Nc2cccc(NC(=O)c3ccncc3)c2)c1,inactive
10,Cc1cccc(C(=O)Nc2cccc(NC(=O)c3ccccc3OC(F)(F)F)c2)c1,inactive
11,CCOc1ccccc1NC(=O)c1cccc(NC(=O)C2CCCC2)c1,inactive
12,COc1ccccc1NC(=O)c1cccc(NC(=O)CC2CCCC2)c1,inactive
13,CCOc1ccccc1NC(=O)c1cccc(NC(=O)c2ccccc2Cl)c1,inactive
14,CCOc1ccc(NC(=O)c2cccc(NC(=O)C3CCCC3)c2)cc1,inactive
15,COc1ccccc1C(=O)Nc1cc(NC(=O)c2ccccc2C(C)C)ccc1F,inactive
16,COc1ccccc1NC(=O)c1cccc(NC(=O)c2ccccc2OC)c1,inactive
17,CCOc1ccccc1NC(=O)c1cccc(NC(=O)CC2CCCCC2)c1,inactive
18,Cc1ccccc1C(=O)Nc1cccc(NC(=O)c2ccccc2)c1,inactive
19,COc1ccc(C(=O)Nc2cccc(NC(=O)c3ccccc3)c2)cc1,inactive
20,COc1cnccc1C(=O)Nc1cccc(NC(=O)c2cccc(C)c2)c1,inactive
21,Cc1cccc(C(=O)Nc2cccc(NC(=O)c3ccccc3)c2)c1,inactive
22,O=C(Nc1cccc(NC(=O)c2ccco2)c1)c1ccccc1,inactive
23,Cc1cccc(C(=O)Nc2cccc(NC(=O)c3cccc(C(F)(F)F)c3)c2)c1,inactive
24,CCOc1ccccc1NC(=O)c1cccc(NC(=O)c2ccc(Cl)cc2)c1,inactive

row,Compound,"flux ratio, lower = inhibition"
1,CCOc1ccccc1NC(=O)c1cccc(C(=O)NC2CCCC2)c1,inactive
2,CCOc1ccccc1NC(=O)c1cccc(NC(=O)c2cccc(OC)c2)c1,inactive
3,O=C(Nc1cccc(NC(=O)c2ccc(F)cc2)c1)c1ccccc1,inactive
4,CCOc1ccccc1NC(=O)c1cccc(NC(=O)C2CCCO2)c1 (stereo not given),inactive
5,CCOc1ccccc1NC(=O)c1cccc(NC(=O)C2CCCCC2)c1,inactive
6,CC(C)c1ccccc1C(=O)Nc1cccc(NC(=O)c2ccccc2OC(F)(F)F)c1,inactive
7,CCOc1ccccc1C(=O)Nc1cccc(NC(=O)C2CCCC2)c1,inactive
8,COc1ccccc1NC(=O)c1cccc(NC(=O)c2ccccc2C(F)(F)F)c1,inactive
9,CCOc1ccccc1NC(=O)c1cccc(NC(=O)c2ccc(C)cc2)c1,inactive
10,Cc1cccc(C(=O)Nc2cccc(NC(=O)c3ccccc3OCC(C)C)c2)c1,inactive
11,O=C(Nc1cccc(NC(=O)c2cccnc2)c1)c1ccccc1,inactive
12,Cc1cccc(C(=O)Nc2cccc(NC(=O)C3CCCCC3)c2)c1,inactive
13,O=C(Nc1cccc(NC(=O)c2cccc(Cl)c2)c1)c1ccccc1,inactive
14,CCOc1ccccc1NC(=O)c1cccc(NC(=O)c2ccccc2)c1,inactive
15,COc1ccc(F)cc1C(=O)Nc1cccc(NC(=O)c2cccc(C)c2)c1,inactive
16,CCOc1ccccc1NC(=O)c1cccc(NC(=O)c2ccccc2C)c1,inactive
17,CCOc1ccccc1NC(=O)c1cccc(NC(=O)c2cccc(C)c2)c1,inactive
18,COc1ccccc1C(=O)Nc1cc(NC(=O)c2cccc(C)c2)ccc1F,inactive
19,Cc1cccc(C(=O)Nc2cccc(NC(=O)c3ccccc3Cl)c2)c1,inactive
20,O=C(Nc1cccc(NC(=O)c2ccccc2C(F)(F)F)c1)c1ccccc1,inactive
21,COc1cccc(C(=O)Nc2cccc(NC(=O)c3ccccc3)c2)c1,inactive
22,O=C(Nc1cccc(NC(=O)c2cccs2)c1)c1ccccc1,inactive
23,O=C(Nc1cccc(NC(=O)c2ccccn2)c1)c1ccccc1,inactive
24,CCOc1ccccc1C(=O)Nc1cccc(NC(=O)c2ccccc2C(F)(F)F)c1,inactive

row,Compound,"flux ratio, lower = inhibition"
1,COc1cccc(OC)c1C(=O)Nc1cccc(NC(=O)c2cccc(C)c2)c1,inactive
2,Cc1cccc(C(=O)Nc2cccc(NC(=O)c3cccc(F)c3)c2)c1,inactive
3,Cc1cccc(C(=O)Nc2cccc(NC(=O)c3ccc(Cl)cc3)c2)c1,inactive
4,O=C(Nc1cccc(NC(=O)C2CCCCC2)c1)c1ccccc1,inactive
5,Cc1cccc(C(=O)Nc2cccc(NC(=O)c3ccccc3C(C)C)c2)c1,inactive
6,CCOc1ccccc1NC(=O)c1cccc(NC(=O)c2ccccc2OC(F)(F)F)c1,inactive
7,CCOc1ccccc1NC(=O)c1cccc(NC(=O)C2CCOC2)c1 (stereo not given),inactive
8,O=C(Nc1cccc(NC(=O)c2ccc(Cl)cc2)c1)c1ccccc1,inactive
9,COc1ccc(C(=O)Nc2cccc(NC(=O)c3cccc(C)c3)c2)cc1,inactive
10,Cc1cccc(C(=O)Nc2cccc(C(=O)Nc3ccccc3)c2)c1,inactive
11,O=C(Nc1cccc(NC(=O)c2ccc(C(F)(F)F)cc2)c1)c1ccccc1,inactive
12,O=C(Nc1cccc(NC(=O)c2ccsc2)c1)c1ccccc1,inactive
13,COc1ccccc1C(=O)Nc1cccc(NC(=O)c2ccccc2OC)c1,inactive
14,Cc1cccc(NC(=O)c2cccc(NC(=O)c3ccccc3)c2)c1,inactive
15,Cc1ccc(C(=O)Nc2cccc(NC(=O)c3ccccc3)c2)cc1,inactive
16,CCOc1ccccc1NC(=O)c1cccc(NC(=O)c2cccc(Cl)c2)c1,inactive
17,Cc1cccc(C(=O)Nc2cccc(NC(=O)c3ccc(N(C)C)cc3)c2)c1,inactive
18,Cc1cccc(C(=O)Nc2cccc(NC(=O)c3ccco3)c2)c1,inactive
19,O=C(Nc1cccc(NC(=O)c2cccc(F)c2)c1)c1ccccc1,inactive
20,CN(C)c1ccc(C(=O)Nc2cccc(NC(=O)c3ccccc3)c2)cc1,inactive
21,O=C(Nc1cccc(NC(=O)c2ccoc2)c1)c1ccccc1,inactive
22,CCOc1ccccc1NC(=O)c1cccc(NC(=O)C(C)(C)C)c1,inactive
